We go through one molecule from patent US8367648B2, “Substituted 16,17-annellated steroid compounds for use in womens healthcare” (MSD OSS B.V., priority 2009, dated 2013).

Like-named read-outs stand apart in the source and are kept apart here.

Series [1] has as its target T1, ERα (Homo sapiens, UniProt P03372).
T1 sequence (P03372 1-595): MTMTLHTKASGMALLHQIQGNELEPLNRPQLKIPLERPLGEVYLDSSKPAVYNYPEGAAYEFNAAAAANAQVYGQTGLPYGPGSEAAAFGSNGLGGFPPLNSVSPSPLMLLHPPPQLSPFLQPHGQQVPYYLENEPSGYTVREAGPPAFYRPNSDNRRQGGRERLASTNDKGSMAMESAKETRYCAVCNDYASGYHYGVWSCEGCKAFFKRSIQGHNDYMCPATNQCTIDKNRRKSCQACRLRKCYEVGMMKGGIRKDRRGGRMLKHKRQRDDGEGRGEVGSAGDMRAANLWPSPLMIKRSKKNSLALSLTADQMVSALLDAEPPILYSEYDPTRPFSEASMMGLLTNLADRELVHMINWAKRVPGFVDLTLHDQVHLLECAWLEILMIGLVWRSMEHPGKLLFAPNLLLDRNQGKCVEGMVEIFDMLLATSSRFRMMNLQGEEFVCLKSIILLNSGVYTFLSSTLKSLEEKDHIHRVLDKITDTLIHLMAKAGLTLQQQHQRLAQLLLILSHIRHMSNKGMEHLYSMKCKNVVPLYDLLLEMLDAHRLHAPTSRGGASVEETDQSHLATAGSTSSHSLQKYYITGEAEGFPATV
Put plainly: In vitro nuclear receptor profile, ERα agonism. It is filed as cell-based.

Series [2] deals with T1, ERα. In words: In vitro nuclear receptor profile, ERα antagonism. The format is cell-based. To be noted: antagonist mode; read-out: ERα ant IC50.
Series [3] deals with T2, ERβ (Homo sapiens, UniProt Q92731). Put plainly: In vitro nuclear receptor profile, ERβ agonism. It is filed as cell-based. To be noted: agonist mode; read-out: ERβ ago EC50.
T2 sequence (Q92731 whole entry): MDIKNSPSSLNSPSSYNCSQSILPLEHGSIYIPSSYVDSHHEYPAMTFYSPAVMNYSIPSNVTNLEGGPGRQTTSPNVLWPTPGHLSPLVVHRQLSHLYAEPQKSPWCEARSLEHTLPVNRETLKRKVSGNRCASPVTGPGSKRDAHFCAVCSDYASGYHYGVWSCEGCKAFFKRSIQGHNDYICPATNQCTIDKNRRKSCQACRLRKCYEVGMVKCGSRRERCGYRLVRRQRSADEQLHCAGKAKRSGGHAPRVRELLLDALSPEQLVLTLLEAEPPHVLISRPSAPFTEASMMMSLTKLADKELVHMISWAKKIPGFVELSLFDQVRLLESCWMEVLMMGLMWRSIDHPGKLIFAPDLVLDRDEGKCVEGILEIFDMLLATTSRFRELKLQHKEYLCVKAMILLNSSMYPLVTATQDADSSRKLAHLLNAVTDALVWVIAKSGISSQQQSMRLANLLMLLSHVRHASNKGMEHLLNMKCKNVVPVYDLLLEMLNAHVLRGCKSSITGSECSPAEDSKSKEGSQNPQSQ
In series [4] the target is T2, ERβ. Put plainly: In vitro nuclear receptor profile, ERβ antagonism. It is filed as cell-based.
The target of series [5] is T3, progesterone receptor B (PR-B) (Homo sapiens, UniProt P06401).
T3 sequence (P06401 1-933): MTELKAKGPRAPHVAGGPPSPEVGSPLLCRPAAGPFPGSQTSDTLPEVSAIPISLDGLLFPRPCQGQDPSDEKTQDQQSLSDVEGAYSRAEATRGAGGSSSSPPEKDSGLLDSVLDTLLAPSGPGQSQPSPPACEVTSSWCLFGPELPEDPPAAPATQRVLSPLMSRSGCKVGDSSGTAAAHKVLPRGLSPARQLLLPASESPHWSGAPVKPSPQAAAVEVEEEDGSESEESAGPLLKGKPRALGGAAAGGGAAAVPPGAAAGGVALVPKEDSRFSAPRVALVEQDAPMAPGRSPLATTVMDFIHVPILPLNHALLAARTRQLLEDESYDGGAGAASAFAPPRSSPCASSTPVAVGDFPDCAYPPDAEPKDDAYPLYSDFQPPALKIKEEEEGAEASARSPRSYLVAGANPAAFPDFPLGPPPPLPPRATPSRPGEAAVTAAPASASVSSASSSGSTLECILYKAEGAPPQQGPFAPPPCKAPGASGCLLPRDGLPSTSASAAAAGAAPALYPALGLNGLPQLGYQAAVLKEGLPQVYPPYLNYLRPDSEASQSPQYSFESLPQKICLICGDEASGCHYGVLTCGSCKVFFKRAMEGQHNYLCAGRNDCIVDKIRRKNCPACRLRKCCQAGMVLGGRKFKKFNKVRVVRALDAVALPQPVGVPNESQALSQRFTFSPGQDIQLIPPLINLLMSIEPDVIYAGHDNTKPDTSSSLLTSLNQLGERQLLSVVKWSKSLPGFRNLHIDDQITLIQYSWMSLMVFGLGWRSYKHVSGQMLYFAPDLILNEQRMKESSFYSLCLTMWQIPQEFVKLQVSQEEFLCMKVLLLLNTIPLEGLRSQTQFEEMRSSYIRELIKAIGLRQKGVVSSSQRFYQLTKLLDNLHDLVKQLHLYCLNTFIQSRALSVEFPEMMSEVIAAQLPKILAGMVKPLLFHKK
In words: In vitro nuclear receptor profile, PR-B agonism. The format is cell-based. To be noted: agonist mode; read-out: PR-B ago EC50.

For series [6], the target named is T3, progesterone receptor B (PR-B). Put plainly: In vitro nuclear receptor profile, PR-B antagonism. It is filed as cell-based.
Series [7] addresses T4, PR-A (Homo sapiens, UniProt P06401).
T4 sequence (P06401 1-769 isoform P06401-2): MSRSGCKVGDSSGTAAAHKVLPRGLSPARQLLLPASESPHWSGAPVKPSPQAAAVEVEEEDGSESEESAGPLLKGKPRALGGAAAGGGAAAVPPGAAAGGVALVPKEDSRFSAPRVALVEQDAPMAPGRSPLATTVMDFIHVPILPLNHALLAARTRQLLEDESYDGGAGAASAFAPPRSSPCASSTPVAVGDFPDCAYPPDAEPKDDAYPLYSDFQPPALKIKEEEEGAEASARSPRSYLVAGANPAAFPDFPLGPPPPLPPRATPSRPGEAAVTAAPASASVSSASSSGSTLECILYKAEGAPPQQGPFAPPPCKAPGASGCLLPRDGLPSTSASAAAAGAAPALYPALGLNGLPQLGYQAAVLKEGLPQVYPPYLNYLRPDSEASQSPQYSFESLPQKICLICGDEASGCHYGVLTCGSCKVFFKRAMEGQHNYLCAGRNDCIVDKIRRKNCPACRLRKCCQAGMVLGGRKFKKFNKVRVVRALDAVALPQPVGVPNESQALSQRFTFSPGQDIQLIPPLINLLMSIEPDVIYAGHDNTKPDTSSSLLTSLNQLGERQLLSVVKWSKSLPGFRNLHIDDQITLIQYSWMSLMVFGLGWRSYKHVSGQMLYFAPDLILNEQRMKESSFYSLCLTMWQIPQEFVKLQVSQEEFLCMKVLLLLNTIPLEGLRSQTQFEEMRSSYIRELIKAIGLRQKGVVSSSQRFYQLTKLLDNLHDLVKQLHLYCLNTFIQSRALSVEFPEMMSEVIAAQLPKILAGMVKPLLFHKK
Put plainly: In vitro nuclear receptor profile, PR-A agonism. It is filed as cell-based. To be noted: agonist mode; read-out: PR-A ago EC50.

The target of series [8] is T4, PR-A. Put plainly: In vitro nuclear receptor profile, PR-A antagonism. The format is cell-based.
For series [9] the following is noted: female, rat, in vivo, po.

Turning to `CCC[C@@H]1Cc2cc(O)ccc2[C@H]2CC[C@@]3(C)[C@@H](C[C@H]4CC[C@H](O)C[C@]43O)[C@H]12` [Org 41621, (7α,16β,17α,22β)-7-propyl-16,24-cyclo-19,21-dinorchola-1,3,5(10)-triene-3,17,22-triol, reference compound], the ERα ago eff at ERα [1] (agonist efficacy) is recorded as 0.95. Also, the EC50 on ERα [1] (agonist mode, read-out: ERα ago EC50) was 0.28 nM; at ERβ [3] it was over 100 nM; in [5], over 100 nM; on PR-A [7], over 100 nM. The IC50 on ERα [2] is over 1000 nM; on ERβ [4] (antagonist mode, read-out: ERβ ant IC50), 3.8 nM; in series [6] (antagonist mode, read-out: PR-B ant IC50), 20.8 nM; on PR-A [8] (antagonist mode, read-out: PR-A ant IC50), 58.3 nM. Moreover, at ERβ [4] (antagonist efficacy), the ERβ ant anteff is 0.89. The same molecule came in with a PR-B ant anteff in [6] (antagonist efficacy) of 0.74. The PR-A ant anteff at PR-A [8] (antagonist efficacy) is given as 0.85. For the same molecule, the “major fetal abnormalities (ribs, humerus, scapula)” value is reported as 3/273 in [9] (0.09 mg/kg) and 11/216 in series [9] (0.15 mg/kg). Besides, the results for the post implantation loss in series [9] (0.09 mg/kg) and in series [9] (0.15 mg/kg) were 15% and 24%, respectively.
